Test results from patent US20240391862A1, “(1,4,5-TRISUBSTITUTED-1H-PYRAZOL-3-YL)OXY-2-ALKOXY ALKYL ACIDS AND THEIR DERIVATIVES, THEIR SALTS AND THEIR USE AS HERBICIDAL AGENTS” (Bayer AKtiengesellschaft, priority 2021, published 2024).

Assays:
[1] = system: DIGSA; experiment: Post-emergence herbicidal effect, greenhouse pot test; assay type: in vivo, Digitaria sanguinalis; details: Digitaria sanguinalis, 504 h, visual rating about 3 weeks after treatment, read-out: Post-emergence effect against DIGSA
Outline: (§1)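 Greenhouse pot plants in sandy loam receive a one-leaf-stage spray at 20 to 320 g/ha. Activity is assessed visually around 3 weeks afterwards on a 0–100% scale, where 100% means the plants have died.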

[2] = system: PHBPU; experiment: Pre-emergence herbicidal effect, greenhouse pot test; assay type: in vivo, Ipomoea purpurea; details: scored visually after about 3 weeks vs untreated controls
Outline: (§2)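 Greenhouse pots with freshly sown seeds receive a soil-surface treatment of 20 to 320 g/ha compound, formulated as WP or EC with 0.5% additive at 600 l/ha. Activity is expressed as visually estimated percent effect versus untreated plants after about 3 weeks, where 100% means the plants died.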

[3] = system: DIGSA; experiment: as above; assay type: in vivo, Digitaria sanguinalis; details: 320 g/ha, scored visually after about 3 weeks vs untreated controls
Outline: as §2

[4] = system: GLXMA; experiment: Pre-emergence herbicidal effect and crop plant compatibility, greenhouse pot test; assay type: in vivo, Glycine max; details: 80 g/ha, scored visually after about 3 weeks vs untreated controls
From the text: (§3) Seeds of monocotyledonous and dicotyledonous weed plants and crop plants are placed in plastic or organic planting pots and covered with soil. The compounds of the invention, formulated in the form of wettable powders (WP) or as emulsion concentrates (EC), are then applied to the surface of the covering soil as aqueous suspension or emulsion with addition of 0.5% additive at a water application rate equivalent to 600 l/ha. After the treatment, the pots are placed in a greenhouse and kept under good growth conditions for the trial plants. After about 3 weeks, the effect of the preparations is scored visually in comparison with untreated controls as percentages. For example, 100% activity=the plants have died, 0% activity=like control plants.
(§4) Tables 1a to 19c below show the effects/crop compatibilities of selected compounds of the general formula (I) on various harmful plants at an application rate corresponding to 20 to 320 g/ha, which were obtained by the trial procedure specified above.
(§5) • ALOMY: Alopecurus myosuroides SETVI: Setaria viridis • AVEFA: Avena fatua POLCO: Fallopia convolvulus • AMARE: Amaranthus retroflexus ECHCG: Echinochloa crus-galli • LOLRJ: Lolium rigidum STEME: Stellaria media • VERPE: Veronica persica MATIN: Tripleurospermum inodorum • DIGSA: Digitaria sanguinalis ABUTH: Abutylon threophrasti • TRZAS: Triticum aestivum VIOTR: Viola tricolor • BRSNW: Brassica napus ZEAMX: Zea mays • PHBPU: Ipomoea purpurea GLXMA: Glycine max • ORYSA: Oryza sativa HORMU: Hordeum murinum

[5] = system: POLCO; experiment: Post-emergence herbicidal effect, greenhouse pot test; assay type: in vivo, Fallopia convolvulus; details: Fallopia convolvulus, 504 h, read-out: Post-emergence effect against POLCO in %
Outline: as §1

[6] = system: ZEAMX; experiment: Post-emergence herbicidal effect and crop plant compatibility, greenhouse pot test; assay type: in vivo, Zea mays; details: Zea mays, 504 h, 80 g/ha, one-leaf stage, rated visually after about 3 weeks vs untreated controls, read-out: Post-emergence effect at 80 g/ha against ZEAMX in %
Outline: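 Greenhouse pot test: weeds and crops sown in sandy loam, sprayed post-emergence at one-leaf stage (2–3 weeks after sowing) with WP or EC formulations plus 0.5% additive at 600 l/ha water, rates 20–320 g/ha. Visual rating about 3 weeks later versus untreated controls (100% = dead, 0% = as control).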

[7] = system: ABUTH; experiment: Post-emergence herbicidal effect, greenhouse pot test; assay type: in vivo, Abutilon theophrasti; details: Abutilon theophrasti, 504 h, visual rating about 3 weeks after treatment, read-out: Post-emergence effect against ABUTH
Outline: as §1

[8] = system: VERPE; experiment: Pre-emergence herbicidal effect, greenhouse pot test; assay type: in vivo, Veronica persica; details: scored visually after about 3 weeks vs untreated controls
From the text: as §3, §4, §5

[9] = system: various unwanted plants; experiment: Post-emergence effect against various unwanted plants (PO): comparative test of I-01 with compounds from WO2020/245044 (Tables 41a, 41b) and summary statements; assay type: in vivo; details: for Post-emergence effect, Effect %, ALOMY / Post-emergence effect, Effect %, AVEFA / Post-emergence effect, Effect %, ECHCG / Post-emergence effect, Effect %, LOLRI / Post-emergence effect, Effect %, SETVI: comparative test
Procedure: Seeds of monocotyledonous and dicotyledonous weeds and crop plants are placed in sandy loam in plastic or organic planting pots, covered with soil and cultivated in a greenhouse under controlled growth conditions. 2 to 3 weeks after sowing, the trial plants are treated at the one-leaf stage. The compounds of the invention, formulated in the form of wettable powders (WP) or as emulsion concentrates (EC), are then sprayed onto the green parts of the plants as aqueous suspension or emulsion with addition of 0.5% additive at a water application rate of 600 l/ha (converted). After the test plants have been kept in the greenhouse under optimum growth conditions for about 3 weeks, the activity of the preparations is rated visually in comparison to untreated controls. For example, 100% activity=the plants have died, 0% activity=like control plants. […] Tables 41a and 41b below show the effects of the inventive compound (I-01) with structurally similar compounds (WO2020/245044) on various harmful plants at an application rate corresponding to 320 g/ha or less, which have been obtained by the trial procedure specified hereinafter. The inventive compound (I-01) differs here by variance of a significant structural feature from the structurally similar compound with regard to the R^2 radical. Seeds of monocotyledonous and dicotyledonous weeds and crop plants are placed in sandy loam in plastic or organic planting pots, covered with soil and cultivated in a greenhouse under controlled growth conditions. 2 to 3 weeks after sowing, the trial plants are treated at the one-leaf stage. The compounds of the invention, formulated in the form of wettable powders (WP) or as emulsion concentrates (EC), are then sprayed onto the green parts of the plants as aqueous suspension or emulsion with addition of 0.5% additive at a water application rate of 600 l/ha (converted). After the test plants have been kept in the greenhouse under optimum growth conditions for about 3 weeks, the activity of the preparations is rated visually in comparison to untreated controls. For example, 100% activity=the plants have died, 0% activity=like control plants. Effects/crop compatibilities of selected compounds (see Table 39) on various harmful plants at an application rate corresponding to 80 to 320 g/ha that have been obtained by the trial procedure specified hereinafter are shown in Tables 41a and 41b below.

COC(=O)C(OC)Oc1nn(-c2ncccc2F)c(-c2ccc(F)nc2)c1Br (stereo not shown) [Example I-05]
pest or weed control at 80 g/ha ([1]; 80 g/ha): 90% | pest or weed control at 320 g/ha ([1]; 320 g/ha): 90% | Pre-emergence effect at 320 g/ha against PHBPU in % [2]: 80% | Pre-emergence effect at 320 g/ha against DIGSA in % [3]: 90% | Pre-emergence effect at 80 g/ha against GLXMA in % [4]: 10% | pest or weed control at 320 g/ha [5]: 80% | plant injury at 80 g/ha [6]: 20%

CCOC(=O)C(OCC)Oc1nn(-c2ccccc2F)c(-c2ccc(F)nc2)c1Br (racemic) [Example I-01, Ethyl (2RS)-{[4-bromo-1-(2-fluorophenyl)-5-(6-fluoropyridin-3-yl)-1H-pyrazol-3-yl]oxy}(ethoxy)acetate]
pest or weed control at 80 g/ha ([7]; 80 g/ha): 80% | pest or weed control at 320 g/ha [7]: 90% | Pre-emergence effect at 320 g/ha against VERPE in % [8]: 80% | Post-emergence effect, Effect %, ALOMY ([9]; 80 g/ha): 90% | Post-emergence effect, Effect %, ALOMY ([9]; 320 g/ha): 100% | Post-emergence effect, Effect %, AVEFA ([9]; 80 g/ha): 90% | Post-emergence effect, Effect %, AVEFA ([9]; 320 g/ha): 90% | Post-emergence effect, Effect %, ECHCG ([9]; 80 g/ha): 90% | Post-emergence effect, Effect %, ECHCG ([9]; 320 g/ha): 90% | Post-emergence effect, Effect %, LOLRI ([9]; 80 g/ha): 70% | Post-emergence effect, Effect %, LOLRI ([9]; 320 g/ha): 90% | Post-emergence effect, Effect %, SETVI ([9]; 80 g/ha): 90% | Post-emergence effect, Effect %, SETVI ([9]; 320 g/ha): 90% | herbicidal efficacy by comparison to the structurally similar compounds (Tables 41a and 41b) ([9]; different harmful plants, 320 g or less per hectare, vs compounds from WO2020/245044): distinctly improved herbicidal efficacy | Pre-emergence effect at 80 g/ha against GLXMA in % [4]: 0% | pest or weed control at 80 g/ha ([5]; 80 g/ha): 80% | pest or weed control at 320 g/ha [5]: 80%

COC(=O)C(OC)Oc1nn(-c2ccccc2F)c(-c2ccc(F)nc2)c1Br (racemic) [Example I-04, Methyl (2RS)-{[4-bromo-1-(2-fluorophenyl)-5-(6-fluoropyridin-3-yl)-1H-pyrazol-3-yl]oxy}(methoxy)acetate]
pest or weed control at 320 g/ha [7]: 80% | Pre-emergence effect at 320 g/ha against VERPE in % [8]: 90% | Pre-emergence effect at 80 g/ha against PHBPU in % ([2]; 80 g/ha): 80% | Pre-emergence effect at 320 g/ha against PHBPU in % [2]: 90%
